These results are taken from US20240317780A1, “RADIOPHARMACEUTICAL SOMATOSTATIN RECEPTOR LIGANDS AND PRECURSORS THEREOF” (Technische Universität München, priority 2021, published 2024).

One series deals with T1, SST2 (Homo sapiens, UniProt P30874).
T1 construct: expressed in transfected cells; host or cells: CHO (Chinese hamster ovary) cells
Put plainly: Determination of IC50: competitive binding against [125I]TOC on SST2-transfected CHO cells. Conditions: [125I]TOC reference radioligand, 60 min room temperature. The protocol: The SST2-transfected CHO cells were cultivated in Dulbecco's Modified Eagle Medium/Nutrient Mixture F-12 (DMEM/F-12) with Glutamax-I (1:1) (Gibco), supplemented with 10% fetal calf serum (FCS) and maintained at 37° C. in a humidified 5% CO2 atmosphere. […] After removal of the culture medium, the cells were treated once with 300 μL of HBSS-B (Hank's balanced salt solution, Biochrom, Berlin, Germany, with addition of 1% bovine serum albumin (BSA)) and left with 200 μL HBSS-B. Next, 25 μL per well of solutions, containing either HBSS-B (control) or the respective ligand in increasing concentration (10^−10-10^−4 M in HBSS-B, were added with subsequent addition of 25 μL of
[^125I]TOC ([^125I]Tyr^3-Octreotide) (1.0 nM) in HBSS-B. Each concentration is investigated in triplicate. After 60 min incubation at room temperature, the experiment was terminated by removal of the assay medium and consecutive rinsing with 300 μL of cold PBS. The media of both steps were combined in one fraction and represent the amount of unbound radioligand.
Afterwards, the cells were lysed with 300 μL of 1 M NaOH and united with the 300 μL 1 M NaOH of the following wash step. Quantification of bound and unbound radioligand was accomplished in a γ-counter.

The nature of series [1]: Biodistribution of 18F-labeled SST2 ligands in AR42J tumor-bearing mice. Type of series: in vivo. Conditions: female, CD1 nu/nu, mouse, iv, total radioactivity, 1 h post injection, tail vein. As for the experimental part:
All animal experiments were conducted in accordance with general animal welfare regulations in Germany and the institutional guidelines for the care and use of animals. To establish tumor xenografts, AR42J cells (5×10^6 cells/100 μL) were suspended in Dulbecco modified Eagle medium/Nutrition Mixture F-12 with Glutamax-1 (1:1) and inoculated subcutaneously onto the right shoulder of 8 weeks old, female CD1 nu/nu mice (Charles River, Sulzfeld, Germany). Mice were used for experiments when tumors had grown to a diameter of 5-9 mm (7-15 days after inoculation).
Approximately 0.5-2.0 MBq (0.05-0.25 nmol) of the ^18F-labeled SST2-ligands were injected into the tail vein of AR42J tumor-bearing female CD1 nu/nu mice and sacrificed after 1 h post injection (n=3-5). Selected organs were removed, weighted and measured in a γ-counter.
The Tables 4, 5, and 6 summarize the results of the in vivo mouse experiments. For all biodistribution studies, female CD1 nu/nu mice with AR42J tumor xenografts, were used and sacrificed 1 h post injection.

Like-named read-outs stand apart in the source and are kept apart here.

For orientation: IC50 means the point on the concentration scale where inhibition reaches its midpoint. A higher IC50 goes with a need for much substance.

T1 sequence (P30874 whole entry, species assumed): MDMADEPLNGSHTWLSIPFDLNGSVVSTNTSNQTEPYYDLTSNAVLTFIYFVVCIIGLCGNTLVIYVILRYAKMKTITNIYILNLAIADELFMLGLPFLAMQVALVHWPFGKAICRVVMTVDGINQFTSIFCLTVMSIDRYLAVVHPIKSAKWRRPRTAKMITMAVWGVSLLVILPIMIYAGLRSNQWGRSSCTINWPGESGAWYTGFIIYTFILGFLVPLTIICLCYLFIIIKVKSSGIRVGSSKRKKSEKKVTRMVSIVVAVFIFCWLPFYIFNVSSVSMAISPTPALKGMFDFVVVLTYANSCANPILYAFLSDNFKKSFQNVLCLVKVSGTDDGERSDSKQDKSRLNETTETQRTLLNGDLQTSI

In turn, `C[C@@H](O)[C@H](NC(=O)C1CSSCC(NC(=O)C(Cc2ccccc2)NC(=O)CNC(=O)CNC(=O)[C@@H](CC(=O)O)NC(=O)C(CC(=O)O)NC(=O)[C@@H](CNC(=O)CN2CCN(CC(=O)O)CCN(CC(=O)O)CCN(CC(=O)O)CC2)NC(=O)C(CN)NC(=O)c2ccc([Si](F)(C(C)(C)C)C(C)(C)C)cc2)C(=O)N[C@@H](Cc2ccc(O)cc2)C(=O)NC(Cc2c[nH]c3ccccc23)C(=O)N[C@@H](CCCCN)C(=O)N[C@@H]([C@@H](C)O)C(=O)N1)C(=O)O` (some centres unmarked) (natGa complex, metal not drawn) [[Ga]19] had an IC50 at SST2 of 11.2 ± 1.04 nM. The tissue uptake at 1 h in series [1] (AR42J tumor, AR42J tumor, read-out: Tumor % ID/g ± SD) was 36.3 ± 4.54 %ID/g; in series [1] (adrenal glands, read-out: Adrenal glands % ID/g ± SD) it was 2.56 ± 0.21 %ID/g; in series [1] (blood, read-out: Blood % ID/g ± SD), 2.24 ± 0.3 %ID/g; in series [1] (bone, read-out: Bone % ID/g ± SD) it was 1.96 ± 0.38 %ID/g; in series [1] (heart, read-out: Heart % ID/g ± SD), 0.88 ± 0.11 %ID/g; in series [1] (intestine, read-out: Intestine % ID/g ± SD), 1.39 ± 0.24 %ID/g. For the same molecule, the tissue uptake at 1 h is 131 ± 26.7 %ID/g in series [1] (kidneys, read-out: Kidneys % ID/g ± SD); 2.47 ± 0.14 %ID/g in series [1] (liver, read-out: Liver % ID/g ± SD); 4.84 ± 0.98 %ID/g in series [1] (lung, read-out: Lung % ID/g ± SD); 0.27 ± 0.04 %ID/g in series [1] (muscle, read-out: Muscle % ID/g ± SD); 12.5 ± 1.87 %ID/g in series [1] (pancreas, read-out: Pancreas % ID/g ± SD); 0.93 ± 0.15 %ID/g in series [1] (spleen, read-out: Spleen % ID/g ± SD). In addition, in series [1] (stomach, read-out: Stomach % ID/g ± SD), the tissue uptake at 1 h came to 7.99 ± 2.08 %ID/g.
